The record followed here is BindingDB's records for doi:10.1016/s0960-894x(99)00210-3 (Tartu University, 1999).

A value given as a limit tells only on which side of the number the result lay.

The nature of the experiment: Inhibitory activity against Protein kinase C beta isoform (PKC) from pig spleen.
As a reminder, the IC50 is the concentration at which inhibition is half-maximal. Consider `N=C(N)NCCC[C@H](NC(=O)[C@H](CCCNC(=N)N)NC(=O)[C@H](CCCNC(=N)N)NC(=O)[C@H](CCCNC(=N)N)NC(=O)[C@H](CCCNC(=N)N)NC(=O)[C@H](CCCNC(=N)N)NC(=O)CCNC(=O)[C@H]1OC(n2cnc3c(N)ncnc32)[C@H](O)[C@@H]1O)C(=O)O` (stereo partly specified), for which half-maximal inhibition (IC50) was put at 3000 nM.
As to `N=C(N)NCCC[C@H](NC(=O)[C@H](CCCNC(=N)N)NC(=O)[C@H](CCCNC(=N)N)NC(=O)[C@H](CCCNC(=N)N)NC(=O)[C@H](CCCNC(=N)N)NC(=O)[C@H](CCCNC(=N)N)NC(=O)CCCNC(=O)[C@H]1OC(n2cnc3c(N)ncnc32)[C@H](O)[C@@H]1O)C(=O)O` (stereo partly specified), half-maximal inhibition (IC50) was put at 1500 nM.
Turning to `C[C@H](NC(=O)C[C@H](NC(=O)C[C@H](NC(=O)[C@H]1O[C@@H](n2cnc3c(N)ncnc32)[C@H](O)[C@@H]1O)C(=O)O)C(=O)O)C(=O)N[C@@H](CCCNC(=N)N)C(=O)N[C@@H](CCCNC(=N)N)C(=O)N[C@@H](CCCNC(=N)N)C(=O)N[C@@H](CCCNC(=N)N)C(=O)N[C@@H](CCCNC(=N)N)C(=O)N[C@@H](CCCNC(=N)N)C(=O)O`, it took 27000 nM to reach half-maximal inhibition (IC50).
The figure for `N=C(N)NCCC[C@H](NC(=O)[C@H](CCCNC(=N)N)NC(=O)[C@H](CCCNC(=N)N)NC(=O)[C@H](CCCNC(=N)N)NC(=O)[C@H](CCCNC(=N)N)NC(=O)[C@H](CCCNC(=N)N)NC(=O)CNC(=O)[C@H]1OC(n2cnc3c(N)ncnc32)[C@H](O)[C@@H]1O)C(=O)O` (stereo partly specified) is 10000 nM.
The figure for `C[C@H](NC(=O)CCNC(=O)CCNC(=O)[C@H]1OC(n2cnc3c(N)ncnc32)[C@H](O)[C@@H]1O)C(=O)N[C@@H](CCCNC(=N)N)C(=O)N[C@@H](CCCNC(=N)N)C(=O)N[C@@H](CCCNC(=N)N)C(=O)N[C@@H](CCCNC(=N)N)C(=O)N[C@@H](CCCNC(=N)N)C(=O)N[C@@H](CCCNC(=N)N)C(=O)O` (stereo partly specified) is 2800 nM; for `CC(=O)NCCCCCC(=O)N[C@@H](CCCN=C(N)N)C(=O)N[C@@H](CCCNC(=N)N)C(=O)N[C@@H](CCCNC(=N)N)C(=O)N[C@@H](CCCNC(=N)N)C(=O)N[C@@H](CCCNC(=N)N)C(=O)N[C@@H](CCCN=C(N)N)C(=O)O` [(R)-2-{(R)-2-[2-((R)-2-{(R)-2-[2-(6-Acetylamino-hexanoylamino)-5-guanidino-pentanoylamino]-5-guanidino-pentanoylamino}-5-guanidino-pentanoylamino)-5-guanidino-pentanoylamino]-5-guanidino-pentanoylamino}-5-guanidino-pentanoic acid] it is over 100000 nM.
